# Experimental data reported in patent US9376418B2, “Substituted pyridine spleen tyrosine kinase (SYK) inhibitors” (Merck Sharp & Dohme Corp., priority 2012, dated 2016).
# Biological target: T1, recombinant human GST-SYK (Homo sapiens, UniProt P43405)
# T1 construct: purchased Carna Biosciences 08-176
# Assay: Homogeneous Time-Resolved Fluorescence (HTRF) assay for the recombinant human Syk enzyme
# Type: biochemical
# Settings: HTRF assay, recombinant human GST-SYK; IC50 given as class symbols; read-out: rhSYK Activity
# How it was run: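 Enzyme […], pH 7.5 Tris/tween/DTT buffer; 10 min preincubation with compound, RT. Start: 250 nM biotin-peptide, 25 μM ATP, 5 mM Mg; 45′ RT. Stop/detect: 40 mM EDTA, Eu-anti-pTyr, SA-APC; read 30 min later.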
row,Structure (SMILES),IC50
1,"Cc1cc(Nc2nccc(C(F)(F)F)n2)cc(-c2ccc(N[C@@H](CCS(C)(=O)=O)C(=O)O)nc2)c1 [Example 7.74, (2S)-4-(methylsulfonyl)-2-{[5-(3-methyl-5-{[4-(trifluoromethyl)pyrimidin-2-yl]amino}phenyl)pyridin-2-yl]amino}butanoic acid]",< 0.1 µM
2,"Cc1cc(Nc2nccc(C(F)(F)F)n2)cc(-c2ccc(N(CCC#N)CC(=O)O)nc2)c1 [Example 7.75, N-(2-cyanoethyl)-N-[5-(3-methyl-5-{[4-(trifluoromethyl)pyrimidin-2-yl]amino}phenyl)pyridin-2-yl]glycine]",< 0.1 µM
3,"COCC(Nc1ccc(-c2cc(C)cc(Nc3nccc(C(F)(F)F)n3)c2)cn1)C(=O)O (stereo not shown) [Example 7.76, O-methyl-N-[5-(3-methyl-5-{[4-(trifluoromethyl)pyrimidin-2-yl]amino}phenyl)pyridin-2-yl]serine]",< 0.1 µM
4,"Cc1cc(Nc2nccc(C(F)(F)F)n2)cc(-c2ccc(NC3(C(=O)O)CCC3)nc2)c1 [Example 7.78, 1-{[5-(3-methyl-5-{[4-(trifluoromethyl)pyrimidin-2-yl]amino}phenyl)pyridin-2-yl]amino}cyclobutanecarboxylic acid]",< 0.1 µM
5,"Cc1cc(Nc2nccc(C(F)(F)F)n2)cc(-c2ccc(N3CCC3C(=O)O)nc2)c1 (stereo not shown) [Example 7.82, 1-[5-(3-methyl-5-{[4-(trifluoromethyl)pyrimidin-2-yl]amino}phenyl)pyridin-2-yl]azetidine-2-carboxylic acid]",< 0.1 µM
6,"Cc1cc(Nc2nccc(C(F)(F)F)n2)cc(-c2ccc(N[C@H](C(=O)O)C(C)C)nc2)c1 [Example 7.91, N-[5-(3-methyl-5-{[4-(trifluoromethyl)pyrimidin-2-yl]amino}phenyl)pyridin-2-yl]-L-valine]",< 0.1 µM
7,"Cc1cc(Nc2nccc(C(F)(F)F)n2)cc(-c2ccc(N[C@H](C(=O)O)[C@@H](C)O)nc2)c1 [Example 7.92, N-[5-(3-methyl-5-{[4-(trifluoromethyl)pyrimidin-2-yl]amino}phenyl)pyridin-2-yl]-L-threonine]",< 0.1 µM
8,"Cc1cc(Nc2nccc(C(F)(F)F)n2)cc(-c2ccc(N[C@H](CC(N)=O)C(=O)O)nc2)c1 [Example 7.93, N~2~-[5-(3-methyl-5-{[4-(trifluoromethyl)pyrimidin-2-yl]amino}phenyl)pyridin-2-yl]-D-asparagine]",< 0.1 µM
9,"CSCC[C@H](Nc1ccc(-c2cc(C)cc(Nc3nccc(C(F)(F)F)n3)c2)cn1)C(=O)O [Example 7.95, N-[5-(3-methyl-5-{[4-(trifluoromethyl)pyrimidin-2-yl]amino}phenyl)pyridin-2-yl]-L-methionine]",< 0.1 µM
10,"Cc1cc(Nc2nccc(C(F)(F)F)n2)cc(-c2ccc(N[C@@H](Cc3ccccc3)C(=O)O)nc2)c1 [Example 7.97, N-[5-(3-methyl-5-{[4-(trifluoromethyl)pyrimidin-2-yl]amino}phenyl)pyridin-2-yl]-L-phenylalanine]",< 0.1 µM
11,"Cc1cc(Nc2nccc(C(F)(F)F)n2)cc(-c2ccc(N[C@@H](Cc3c[nH]c4ccccc34)C(=O)O)nc2)c1 [Example 7.100, N-[5-(3-methyl-5-{[4-(trifluoromethyl)pyrimidin-2-yl]amino}phenyl)pyridin-2-yl]-L-tryptophan]",< 0.1 µM
12,"CC[C@@H](C)[C@@H](Nc1ccc(-c2cc(C)cc(Nc3nccc(C(F)(F)F)n3)c2)cn1)C(=O)O [Example 7.101, N-[5-(3-methyl-5-{[4-(trifluoromethyl)pyrimidin-2-yl]amino}phenyl)pyridin-2-yl]-D-isoleucine]",< 0.1 µM
13,"Cc1cc(Nc2nccc(C(F)(F)F)n2)cc(-c2ccc(NCCCC(=O)O)nc2)c1 [Example 7.102, 4-{[5-(3-methyl-5-{[4-(trifluoromethyl)pyrimidin-2-yl]amino}phenyl)pyridin-2-yl]amino}butanoic acid]",< 0.1 µM
14,"CC[C@H](Nc1ccc(-c2cc(C)cc(Nc3nccc(C(F)(F)F)n3)c2)cn1)C(=O)O [Example 7.103, (2S)-2-{[5-(3-methyl-5-{[4-(trifluoromethyl)pyrimidin-2-yl]amino}phenyl)pyridin-2-yl]amino}butanoic acid]",< 0.1 µM
15,"Cc1cc(Nc2nccc(C(F)(F)F)n2)cc(-c2ccc(N(C)[C@@H](C)C(=O)O)nc2)c1 [Example 7.104, N-methyl-N-[5-(3-methyl-5-{[4-(trifluoromethyl)pyrimidin-2-yl]amino}phenyl)pyridin-2-yl]-L-alanine]",< 0.1 µM
16,"Cc1cc(Nc2nccc(C(F)(F)F)n2)cc(-c2ccc(N3C[C@H](O)C[C@H]3C(=O)O)nc2)c1 [Example 7.105, (4R)-4-hydroxy-1-[5-(3-methyl-5-{[4-(trifluoromethyl)pyrimidin-2-yl]amino}phenyl)pyridin-2-yl]-L-proline]",< 0.1 µM

# The remaining lines, values ahead:
row,IC50,Structure (SMILES)
1,< 0.1 µM,"Cc1cc(Nc2nccc(C(F)(F)F)n2)cc(-c2ccc(N[C@H](Cc3csc4ccccc34)C(=O)O)nc2)c1 [Example 7.79, 3-(1-benzothiophen-3-yl)-N-[5-(3-methyl-5-{[4-(trifluoromethyl)pyrimidin-2-yl]amino}phenyl)pyridin-2-yl]-D-alanine]"
2,< 0.1 µM,"Cc1cc(Nc2nccc(C(F)(F)F)n2)cc(-c2ccc(NC3(C(=O)O)CCCC3)nc2)c1 [Example 7.80, 1-{[5-(3-methyl-5-{[4-(trifluoromethyl)pyrimidin-2-yl]amino}phenyl)pyridin-2-yl]amino}cyclopentanecarboxylic acid]"
3,0.1 to 1 µM,"Cc1cc(Nc2nccc(C(F)(F)F)n2)cc(-c2ccc(NC3(C(=O)O)CC3)nc2)c1 [Example 7.81, 1-{[5-(3-methyl-5-{[4-(trifluoromethyl)pyrimidin-2-yl]amino}phenyl)pyridin-2-yl]amino}cyclopropanecarboxylic acid]"
4,< 0.1 µM,"Cc1cc(Nc2nccc(C(F)(F)F)n2)cc(-c2ccc(N3CCC[C@H]3C(=O)NCC(=O)O)nc2)c1 [Example 7.83, 1-[5-(3-methyl-5-{[4-(trifluoromethyl)pyrimidin-2-yl]amino}phenyl)pyridin-2-yl]-L-prolylglycine]"
5,< 0.1 µM,"Cc1cc(Nc2nccc(C(F)(F)F)n2)cc(-c2ccc(N3CCC[C@H]3C(=O)O)nc2)c1 [Example 7.84, 1-[5-(3-methyl-5-{[4-(trifluoromethyl)pyrimidin-2-yl]amino}phenyl)pyridin-2-yl]-L-proline]"
6,< 0.1 µM,"Cc1cc(Nc2nccc(C(F)(F)F)n2)cc(-c2ccc(N3CCCC[C@@H]3C(=O)O)nc2)c1 [Example 7.85, (2R)-1-[5-(3-methyl-5-{[4-(trifluoromethyl)pyrimidin-2-yl]amino}phenyl)pyridin-2-yl]piperidine-2-carboxylic acid]"
7,< 0.1 µM,"Cc1cc(Nc2nccc(C(F)(F)F)n2)cc(-c2ccc(N[C@@H](C)C(=O)O)nc2)c1 [Example 7.86, N-[5-(3-methyl-5-{[4-(trifluoromethyl)pyrimidin-2-yl]amino}phenyl)pyridin-2-yl]-L-alanine]"
8,< 0.1 µM,"Cc1cc(Nc2nccc(C(F)(F)F)n2)cc(-c2ccc(NCC(=O)O)nc2)c1 [Example 7.87, N-[5-(3-methyl-5-{[4-(trifluoromethyl)pyrimidin-2-yl]amino}phenyl)pyridin-2-yl]glycine]"
9,< 0.1 µM,"Cc1cc(Nc2nccc(C(F)(F)F)n2)cc(-c2ccc(NCCC(=O)O)nc2)c1 [Example 7.88, N-[5-(3-methyl-5-{[4-(trifluoromethyl)pyrimidin-2-yl]amino}phenyl)pyridin-2-yl]-beta-alanine]"
10,< 0.1 µM,"Cc1cc(Nc2nccc(C(F)(F)F)n2)cc(-c2ccc(N[C@H](C)C(=O)O)nc2)c1 [Example 7.89, N-[5-(3-methyl-5-{[4-(trifluoromethyl)pyrimidin-2-yl]amino}phenyl)pyridin-2-yl]-D-alanine]"
11,< 0.1 µM,"Cc1cc(Nc2nccc(C(F)(F)F)n2)cc(-c2ccc(N[C@@H](C(=O)O)C(C)C)nc2)c1 [Example 7.90, N-[5-(3-methyl-5-{[4-(trifluoromethyl)pyrimidin-2-yl]amino}phenyl)pyridin-2-yl]-D-valine]"
12,< 0.1 µM,"Cc1cc(Nc2nccc(C(F)(F)F)n2)cc(-c2ccc(N[C@@H](CC(N)=O)C(=O)O)nc2)c1 [Example 7.94, N~2~-[5-(3-methyl-5-{[4-(trifluoromethyl)pyrimidin-2-yl]amino}phenyl)pyridin-2-yl]-L-asparagine]"
13,< 0.1 µM,"Cc1cc(Nc2nccc(C(F)(F)F)n2)cc(-c2ccc(N[C@H](Cc3ccccc3)C(=O)O)nc2)c1 [Example 7.96, N-[5-(3-methyl-5-{[4-(trifluoromethyl)pyrimidin-2-yl]amino}phenyl)pyridin-2-yl]-D-phenylalanine]"
14,< 0.1 µM,"Cc1cc(Nc2nccc(C(F)(F)F)n2)cc(-c2ccc(N[C@@H](Cc3ccc(O)cc3)C(=O)O)nc2)c1 [Example 7.98, N-[5-(3-methyl-5-{[4-(trifluoromethyl)pyrimidin-2-yl]amino}phenyl)pyridin-2-yl]-L-tyrosine]"
15,< 0.1 µM,"Cc1cc(Nc2nccc(C(F)(F)F)n2)cc(-c2ccc(N[C@H](Cc3c[nH]c4ccccc34)C(=O)O)nc2)c1 [Example 7.99, N-[5-(3-methyl-5-{[4-(trifluoromethyl)pyrimidin-2-yl]amino}phenyl)pyridin-2-yl]-D-tryptophan]"
16,< 0.1 µM,"Cc1cc(Nc2nccc(C(F)(F)F)n2)cc(-c2ccc(N[C@H](C(=O)O)C(C)(C)C)nc2)c1 [Example 7.106, 3-methyl-N-[5-(3-methyl-5-{[4-(trifluoromethyl)pyrimidin-2-yl]amino}phenyl)pyridin-2-yl]-L-valine]"
17,< 0.1 µM,"CCC[C@@H](Nc1ccc(-c2cc(C)cc(Nc3nccc(C(F)(F)F)n3)c2)cn1)C(=O)O [Example 7.107, N-[5-(3-methyl-5-{[4-(trifluoromethyl)pyrimidin-2-yl]amino}phenyl)pyridin-2-yl]-D-norvaline]"
18,< 0.1 µM,"Cc1cc(Nc2nccc(C(F)(F)F)n2)cc(-c2ccc(N[C@H](CO)C(=O)O)nc2)c1 [Example 7.108, N-[5-(3-methyl-5-{[4-(trifluoromethyl)pyrimidin-2-yl]amino}phenyl)pyridin-2-yl]-D-serine]"
